Reference: patent EP0447324B1, “2,4-Pyrimidinedione derivatives and medicines containing them” (SANOFI, priority 1990, dated 1991)
Entries after “also recorded” stand apart in the source; their conditions may differ.

Test system: peroxydation des lipides membranaires (suspensions de mitochondries)
Assay: Inhibition of membrane lipid peroxidation in beef heart mitochondria (malonaldehyde formation, dihydroxyfumaric acid/iron)
Format: biochemical, boeuf
Text: L'inhibition de la peroxydation lipidique due aux radicaux libres oxygénés, peroxydation particulièrement importante en présence de fer, a été déterminée, in vitro, par la mesure de la quantité d'aldéhyde malonique formée dans des suspensions de mitochondries, mises en présence d'un générateur d'ions superoxydes comme l'acide dihydroxyfumarique.
L'activité inhibitrice de la peroxydation des lipides membranaires des composés a été déterminée comme suit :
a) préparation des mitochondries
On prélève un coeur de boeuf immédiatement après l'abattage de l'animal et le refroidit à 4°C, température à laquelle toutes les opérations suivantes seront effectuées. Le coeur est lavé avec une solution aqueuse tampon à pH 7,4 (TRIS,HCl 10 mM, EDTA 2 mM, KCl 20 mM, saccharose 250 mM) puis les tissus conjonctifs et les graisses sont éliminés. Le muscle est alors haché et le hachis est mis en suspension dans une solution aqueuse tampon à pH 7,4 (TRIS,HCl 10 mM, saccharose 250 mM, EDTA 1 mM) à raison de 700 g de muscle pour 3 litres. Le pH de la suspension est réajusté à 7,4, régulièrement, avant d'isoler le hachis par filtration sur une gaze. […]
Une gamme étalon de malonaldéhyde bis-(diéthylacétal) dilué dans une solution aqueuse de HCl 0,1 N permet de calculer à quelle concentration d'aldéhyde correspond chaque intensité de la fluorescence i. […]

O=c1[nH]c(=O)c2[nH]c(=O)[nH]c2[nH]1 [acide urique]
inhibition de la peroxydation lipidique (result in words): n'inhibe pas; also recorded: inactif
inhibition de la formation de malonaldéhyde (concentration inférieure à 100 »M): n'inhibe pas
